Measurements taken from PubChem BioAssay (NCI).
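Results reflect a 48-hour exposure of cells in 96-well plates to compound at five concentrations. Abbreviation: GI50, concentration required for 50% inhibition of growth. The concentration for full growth arrest is given as TGI.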

Key:
Experiment in all cases: NCI tumour cell line growth inhibition, 48 h
[1] = tested on: HL-60(TB) leukemia
[2] = tested on: CCRF-CEM leukemia
[3] = tested on: CAKI-1 renal
[4] = tested on: M14 melanoma
[5] = tested on: NCI-H23 lung
[6] = tested on: SK-MEL-28 melanoma
[7] = tested on: HOP-62 NSCLC
[8] = tested on: SNB-19 CNS
[9] = tested on: OVCAR-8 ovarian
[10] = tested on: SK-OV-3 ovarian
[11] = tested on: BT-549 breast

SMILES	TGI [1] [µM]	TGI [2] [µM]	TGI [3] [µM]	TGI [4] [µM]	TGI [5] [µM]	TGI [6] [µM]	TGI [7] [µM]	TGI [8] [µM]	TGI [9] [µM]	TGI [10] [µM]	TGI [11] [µM]	GI50 [1] [µM]	GI50 [2] [µM]	GI50 [3] [µM]	GI50 [5] [µM]	GI50 [6] [µM]	GI50 [7] [µM]	GI50 [8] [µM]	GI50 [9] [µM]	GI50 [10] [µM]
CC(=O)NC(Cc1ccc(OP(=O)(OCc2ccc([N+](=O)[O-])o2)N(C)CCCCCl)cc1)C(=O)NC(C)c1ccc(OCC2CCCCC2)c(C(N)=O)c1 (stereo unspecified)	6.83	10.1	> 100	5.49	6.3	4.08	23.7	14.9	21.8	37.3										
Cc1nc2ccccc2n1Cc1nnc(N)o1	> 100	> 100		> 100	> 100	> 100	> 100	> 100	> 100	> 100	> 100									
O=C(OCc1ccccc1)N1CCN(C(=O)OCc2ccccc2)CCN(C(=O)OCc2ccccc2)CCN(C(=O)OCc2ccccc2)CCN(C(=O)OCc2ccccc2)CC1			> 100	> 100		> 100	> 100	> 100	> 100	> 100	> 100									
CC(=O)O[C@H]1C[C@H]2C(=S)Nc3ccccc3C(=S)N2C1		> 100	> 100	> 100	> 100	> 100	> 100	> 100	> 100	> 100	> 100									
CSc1nc2c(=O)n(-c3ccccc3)c(=S)n(-c3ccccc3)c2s1	> 100	> 100		> 100	> 100	> 100	> 100	64.7	> 100	> 100										
CC(C)OC(=O)[C@@H](O)[C@H](CO)C1=CC([Si](C)(C)c2ccccc2)=CON1			> 100	> 100	> 100	> 100	> 100	> 100	> 100	> 100	> 100									
N#Cc1nc(CCC(c2nc(C#N)c(N)o2)N2C(=O)c3ccccc3C2=O)oc1N (stereo unspecified)	> 100		> 100	> 100	> 100	> 100	> 100	> 100		> 100										
O=C1c2ccccc2-c2nc(/C=C/c3ccccc3)cc3c2c1nc1ccccc13		> 100	> 100	> 100	28.9	44.6	76.3	> 100	> 100	> 100	> 100									
O=C1c2ccccc2C(=O)c2c(O)ccc(O)c21	> 100	> 100	> 100	> 100	> 100	> 100	> 100	> 100	> 100	> 100										
CC(Cc1ccccc1)NC1=NCCO1 (stereo unspecified)			> 100		51		> 100	> 100	> 100	> 100										
CC(NC(C#N)CC12CC3CC(CC(C3)C1)C2)c1ccccc1 (stereo unspecified)	42.3	59.4	> 100	> 100		> 100	> 100	> 100	> 100	> 100										
C[C@]1(O)O[C@@H]2OCC[C@@H]2C2=C1C(=O)c1ccccc1C2=O	33.2	51.2	34.7	24.1	31.6	82.5	26.7	35.2	29.4	45.6										
NC(=O)CC(N=C1C(=O)OC(C(O)CO)C1=NC(CC(N)=O)C(=O)O)C(=O)O (stereo unspecified)	> 100	> 100	> 100	> 100	> 100	> 100	> 100	> 100	> 100	> 100										
CC1CCc2sc3[nH]c(=S)n(-c4ccccc4)c(=O)c3c2C1 (stereo unspecified)			> 100	> 100	> 100	> 100	> 100	> 100	> 100	> 100	> 100									
Cc1nc(C(N)=S)sc1C(=O)C/C(=N/N)C(=O)Nc1ccc(Cl)cc1			> 100	> 100	> 100	> 100	> 100	> 100	> 100	> 100	> 100									
NC(=O)c1nnsc1NC=O	> 100	> 100	> 100	> 100	> 100	> 100	> 100	> 100	> 100	> 100										

SMILES	TGI [1] [µM]	TGI [2] [µM]	TGI [3] [µM]	TGI [4] [µM]	TGI [5] [µM]	TGI [6] [µM]	TGI [7] [µM]	TGI [8] [µM]	TGI [9] [µM]	TGI [10] [µM]	TGI [11] [µM]	GI50 [1] [µM]	GI50 [2] [µM]	GI50 [3] [µM]	GI50 [5] [µM]	GI50 [6] [µM]	GI50 [7] [µM]	GI50 [8] [µM]	GI50 [9] [µM]	GI50 [10] [µM]
CC(C)C(=O)/C=C/c1ccc(Cl)c(Cl)c1	47	81.7		31.9	36.5	35.3		28.5	45.8	70.3										
COc1cc2c(cc1OCCCC(=O)Nc1cc(C(=O)NCCCN(C)C)n(C)n1)N=CC1CCCN1C2=O (stereo unspecified)	0.24		50.9	> 27.6	> 26.2	11.1	> 43.7	> 37.4	> 24	> 62.3	29.7									
CCOC(=O)CSc1[nH]c(NC(=S)Nc2ccccc2)c(C(N)=O)c1C(N)=O	4.78	> 10	> 10	> 10	> 10	> 10	> 10		> 10	> 10										
C=C(C)[C@@H]1CCC2=C[C@H](CC(C)=CC3=CC(C)=C(O3)[C@@H]1OC)OC2=O	> 100	> 100	> 100	> 100		> 100		> 100	> 100		> 100									
CCOP(=O)(OCC)C1=NC=CC=CC1n1c(-c2ccccc2)nn(CC)c1=O (stereo unspecified)	> 100	> 100	> 100		> 100	> 100	> 100	> 100	> 100	> 100										
Oc1ccc(C#CCOc2ccccc2)cc1CNCCN(Cc1ccccn1)Cc1ccccn1	4.21	10.7	2.75		5.51	5.91	2.96	7.67	6.55	2.27		1.19	0.833	1.33	1.83	2.04	0.762	0.797	1	0.944
c1ccc(N=C2SC3=NCCN3C2=Nc2ccccc2)cc1		11.8	38.2	37.8	52.9	35	52.9	32.5	> 100	> 100	34.7									
COC(=O)c1ccccc1C1CN=NC12Cc1cccc(C)c1C2=O (stereo unspecified)	72.1	> 100	> 100		> 100	> 100	> 100	> 100	> 100	> 100	> 100									
CC(=O)/C=C(\O)c1[nH]c(C(=O)O)cc1C1CCN(Cc2ccccc2)C1=O (stereo unspecified)			> 100	29.6	35.3	43.8	32.8	83.5	36.4	57.7	58.1									
COc1ccccc1NC(=O)O/N=C(/Cl)C(C)C	3.6	3.57		20.3	28.8	27.8	17.1	> 56.4	28.6	32.7	21.6									
O=C1C(NCCN2CCOCC2)=C(Cl)C(=O)c2ncccc21	0.168	1.1		1.73	2.73	2.99	3.63	2.75	1.9	2.73	2.57									
COc1cc(C2c3cc4c(cc3[C@@H](Nc3cccc([N+](=O)[O-])c3)C3COC(=O)[C@H]23)OCO4)cc(OC)c1O (stereo partly specified)	4.3		7.46		4.65	> 100	3.31	> 31.4	> 32.9	9.67										
NC1CC(=O)c2sccc21 (stereo unspecified)		> 100	> 100	> 100	> 100	> 100	> 100	> 100	> 100	> 100	> 100									
CCN(CC)CCCC(C)NC(=O)c1ccc2c(c1)C(=O)c1ccccc1C2=O (stereo unspecified)	34.2	61.2	79.3	33.3	24.2	29.8	69.9	55.3	66	> 93.6										
C#CC(O)/C=C/C(O)CCCC(O)CC#CC(O)C#CC(O)CCCC(O)/C=C/CCCC(=O)CCCCCCCCCCCCCCCC(O)C(O)C#CC(=O)O (stereo unspecified)	27.4	36.3	> 50	> 50	> 50	> 50	> 50	> 50	> 50	> 50										
Clc1ncc(Cl)c(Cl)n1	2.36	> 100	3.25	10.6	42.3	10.9	39.4	10.3	19.3	14.3										
